Source: ChEMBL document CHEMBL5465560, “Selectivity Literature for EUbOPEN Chemogenomic Library” (2024)
One block for each molecule: values may come before it.

Key:
[1] = target: Hepatocyte growth factor receptor (Homo sapiens, UniProt P08581); experiment: (§1) Selectivity interaction (KinomeScan (DiscoverX)) EUB0000311b MET; details: at 1 µM
[2] = tested on: Hepatocyte growth factor receptor (Homo sapiens), P08581 [Y1235D]; experiment: as §1; details: at 1 µM
[3] = tested on: Hepatocyte growth factor receptor (Homo sapiens), P08581 [M1250T]; experiment: as §1; details: at 1 µM
[4] = target: Tyrosine-protein kinase Lck (Homo sapiens, UniProt P06239); experiment: Selectivity interaction (KinomeScan (DiscoverX)) EUB0000699a LCK; details: at 10 µM
[5] = target: T1, Ribosomal protein S6 kinase delta-1 (Homo sapiens) (UniProt Q96S38); experiment: Selectivity interaction (ActivX KiNativ screen (kinase selectivity in THP-1 cell lysates)) EUB0000639a RPS6KC1; type: subcellular; details: lysate
T1 sequence (whole entry): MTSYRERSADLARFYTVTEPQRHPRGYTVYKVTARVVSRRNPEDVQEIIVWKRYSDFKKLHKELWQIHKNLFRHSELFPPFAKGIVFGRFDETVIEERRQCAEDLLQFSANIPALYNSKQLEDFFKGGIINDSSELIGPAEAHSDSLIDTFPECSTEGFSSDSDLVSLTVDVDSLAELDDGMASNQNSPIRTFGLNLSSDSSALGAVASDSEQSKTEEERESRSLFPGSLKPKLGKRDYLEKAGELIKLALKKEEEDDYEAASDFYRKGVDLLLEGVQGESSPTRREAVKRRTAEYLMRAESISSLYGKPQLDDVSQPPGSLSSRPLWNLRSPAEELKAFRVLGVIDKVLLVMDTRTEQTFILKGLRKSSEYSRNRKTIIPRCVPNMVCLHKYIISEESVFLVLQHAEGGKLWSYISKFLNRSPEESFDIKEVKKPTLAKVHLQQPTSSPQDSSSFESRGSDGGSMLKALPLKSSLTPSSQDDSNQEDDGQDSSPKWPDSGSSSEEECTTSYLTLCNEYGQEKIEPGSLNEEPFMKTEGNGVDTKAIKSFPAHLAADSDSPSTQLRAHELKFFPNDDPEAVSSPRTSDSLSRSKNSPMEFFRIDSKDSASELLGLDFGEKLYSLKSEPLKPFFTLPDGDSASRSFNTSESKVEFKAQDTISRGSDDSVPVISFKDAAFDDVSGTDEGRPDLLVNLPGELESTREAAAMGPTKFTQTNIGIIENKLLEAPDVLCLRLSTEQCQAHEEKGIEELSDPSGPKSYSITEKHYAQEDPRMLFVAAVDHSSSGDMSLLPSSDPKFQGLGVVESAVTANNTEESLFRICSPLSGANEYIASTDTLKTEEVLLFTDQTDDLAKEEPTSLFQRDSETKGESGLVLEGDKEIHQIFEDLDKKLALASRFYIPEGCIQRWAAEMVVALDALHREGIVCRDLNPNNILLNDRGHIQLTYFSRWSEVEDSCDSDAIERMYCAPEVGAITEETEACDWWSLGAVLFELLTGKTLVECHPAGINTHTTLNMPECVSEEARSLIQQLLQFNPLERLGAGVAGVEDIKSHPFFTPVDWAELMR

[6] = target: T2, cGMP-dependent protein kinase 2 (Homo sapiens) (UniProt Q13237); experiment: Selectivity interaction (Ambit KINOMEscan and KiNATiv profiling in Jurkat cells) EUB0000090b PRKG2; type: cell-based; details: at 1 µM
T2 sequence (whole entry): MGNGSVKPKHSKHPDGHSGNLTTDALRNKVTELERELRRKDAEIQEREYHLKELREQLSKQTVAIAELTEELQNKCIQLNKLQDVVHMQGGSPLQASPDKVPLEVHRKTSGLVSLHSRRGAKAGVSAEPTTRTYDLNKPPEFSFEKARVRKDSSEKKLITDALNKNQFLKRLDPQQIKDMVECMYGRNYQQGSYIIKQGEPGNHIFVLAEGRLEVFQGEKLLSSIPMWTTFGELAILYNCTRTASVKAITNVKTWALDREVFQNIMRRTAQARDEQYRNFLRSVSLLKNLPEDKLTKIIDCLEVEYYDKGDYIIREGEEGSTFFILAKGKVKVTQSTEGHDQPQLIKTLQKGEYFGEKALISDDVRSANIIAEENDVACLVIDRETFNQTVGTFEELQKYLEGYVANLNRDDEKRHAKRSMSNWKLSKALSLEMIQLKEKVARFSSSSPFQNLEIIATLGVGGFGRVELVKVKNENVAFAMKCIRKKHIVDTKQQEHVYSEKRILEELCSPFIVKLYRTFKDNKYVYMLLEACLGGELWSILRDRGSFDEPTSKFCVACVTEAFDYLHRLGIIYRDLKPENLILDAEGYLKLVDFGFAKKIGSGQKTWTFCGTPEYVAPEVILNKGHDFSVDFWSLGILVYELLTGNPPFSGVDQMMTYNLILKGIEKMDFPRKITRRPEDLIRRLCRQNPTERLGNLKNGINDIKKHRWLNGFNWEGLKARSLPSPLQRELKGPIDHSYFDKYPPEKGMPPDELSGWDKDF

[7] = target: T3, Serine/threonine-protein kinase tousled-like 1 (Homo sapiens) (UniProt Q9UKI8); experiment: Selectivity interaction (KinomeScan (DiscoverX)) EUB0000045b TLK1
T3 sequence (whole entry): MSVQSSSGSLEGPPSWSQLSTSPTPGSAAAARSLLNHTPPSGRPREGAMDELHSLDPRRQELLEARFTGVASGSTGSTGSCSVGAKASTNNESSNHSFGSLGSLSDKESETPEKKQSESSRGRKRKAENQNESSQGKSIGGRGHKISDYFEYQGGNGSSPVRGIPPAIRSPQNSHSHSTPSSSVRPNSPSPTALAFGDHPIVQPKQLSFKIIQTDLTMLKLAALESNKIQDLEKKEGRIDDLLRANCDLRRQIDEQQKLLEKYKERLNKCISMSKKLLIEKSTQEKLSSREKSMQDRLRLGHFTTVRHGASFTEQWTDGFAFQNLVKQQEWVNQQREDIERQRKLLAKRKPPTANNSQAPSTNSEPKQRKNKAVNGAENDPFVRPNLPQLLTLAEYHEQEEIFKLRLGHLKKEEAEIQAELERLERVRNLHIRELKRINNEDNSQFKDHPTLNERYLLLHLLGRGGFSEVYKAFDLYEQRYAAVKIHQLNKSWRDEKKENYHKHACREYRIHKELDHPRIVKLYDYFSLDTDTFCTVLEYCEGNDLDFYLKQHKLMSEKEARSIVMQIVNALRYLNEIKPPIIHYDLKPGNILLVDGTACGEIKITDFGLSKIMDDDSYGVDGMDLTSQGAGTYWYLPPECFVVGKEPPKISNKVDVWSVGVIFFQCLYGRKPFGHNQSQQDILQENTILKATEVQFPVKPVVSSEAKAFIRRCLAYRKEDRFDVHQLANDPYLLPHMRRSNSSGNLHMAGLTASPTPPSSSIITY

Chain of Tyrosine-protein kinase Lck (P06239 2-509 limits assumed): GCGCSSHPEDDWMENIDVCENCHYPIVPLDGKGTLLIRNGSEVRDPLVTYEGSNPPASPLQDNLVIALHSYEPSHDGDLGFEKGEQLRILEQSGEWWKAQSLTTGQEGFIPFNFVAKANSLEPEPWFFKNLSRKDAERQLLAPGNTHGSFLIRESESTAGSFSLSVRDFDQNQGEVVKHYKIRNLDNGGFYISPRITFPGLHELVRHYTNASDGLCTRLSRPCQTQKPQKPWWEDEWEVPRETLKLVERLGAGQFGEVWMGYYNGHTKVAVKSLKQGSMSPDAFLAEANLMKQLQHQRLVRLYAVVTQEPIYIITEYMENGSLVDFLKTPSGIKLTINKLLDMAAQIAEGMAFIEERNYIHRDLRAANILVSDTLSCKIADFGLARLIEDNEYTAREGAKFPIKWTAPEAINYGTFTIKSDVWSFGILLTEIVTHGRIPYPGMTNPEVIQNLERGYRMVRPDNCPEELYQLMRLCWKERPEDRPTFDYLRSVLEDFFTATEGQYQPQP
Chain of Hepatocyte growth factor receptor (Homo sapiens), P08581 [M1250T] (P08581 whole entry M1250T): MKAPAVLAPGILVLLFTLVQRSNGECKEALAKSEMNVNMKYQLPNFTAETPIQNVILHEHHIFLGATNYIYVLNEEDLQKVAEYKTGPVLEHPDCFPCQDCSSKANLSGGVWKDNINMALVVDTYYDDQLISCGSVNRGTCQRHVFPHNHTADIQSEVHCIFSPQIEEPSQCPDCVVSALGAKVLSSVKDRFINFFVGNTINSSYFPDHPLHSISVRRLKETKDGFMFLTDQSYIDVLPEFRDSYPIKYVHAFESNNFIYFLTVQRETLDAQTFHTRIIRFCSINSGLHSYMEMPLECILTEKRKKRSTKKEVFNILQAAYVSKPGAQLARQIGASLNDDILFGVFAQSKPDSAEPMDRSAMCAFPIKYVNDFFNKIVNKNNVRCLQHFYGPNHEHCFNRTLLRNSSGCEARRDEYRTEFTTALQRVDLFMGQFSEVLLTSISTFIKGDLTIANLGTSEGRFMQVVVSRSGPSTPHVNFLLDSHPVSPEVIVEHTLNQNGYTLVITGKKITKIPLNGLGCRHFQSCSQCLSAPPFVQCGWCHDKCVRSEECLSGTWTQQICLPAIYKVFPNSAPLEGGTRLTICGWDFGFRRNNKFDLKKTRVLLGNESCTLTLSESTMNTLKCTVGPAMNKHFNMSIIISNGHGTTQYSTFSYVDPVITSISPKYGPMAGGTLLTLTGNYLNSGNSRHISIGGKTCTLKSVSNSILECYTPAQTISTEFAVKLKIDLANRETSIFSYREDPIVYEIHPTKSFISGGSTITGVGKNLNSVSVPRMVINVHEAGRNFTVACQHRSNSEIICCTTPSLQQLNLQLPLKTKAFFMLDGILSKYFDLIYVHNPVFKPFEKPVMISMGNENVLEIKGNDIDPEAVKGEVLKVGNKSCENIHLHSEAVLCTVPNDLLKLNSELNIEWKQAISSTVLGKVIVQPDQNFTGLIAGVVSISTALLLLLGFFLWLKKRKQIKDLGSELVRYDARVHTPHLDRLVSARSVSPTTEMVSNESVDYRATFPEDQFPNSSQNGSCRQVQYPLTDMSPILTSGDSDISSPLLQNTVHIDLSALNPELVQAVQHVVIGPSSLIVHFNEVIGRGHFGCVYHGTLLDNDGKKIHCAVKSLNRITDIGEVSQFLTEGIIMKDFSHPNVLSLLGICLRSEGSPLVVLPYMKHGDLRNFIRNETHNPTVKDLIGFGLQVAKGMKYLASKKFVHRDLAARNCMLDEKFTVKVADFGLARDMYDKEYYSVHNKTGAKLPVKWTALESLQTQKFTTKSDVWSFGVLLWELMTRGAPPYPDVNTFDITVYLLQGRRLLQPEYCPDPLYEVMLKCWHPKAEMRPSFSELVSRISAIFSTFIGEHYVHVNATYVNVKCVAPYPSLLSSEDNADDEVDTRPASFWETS
Chain of Hepatocyte growth factor receptor (Homo sapiens), P08581 [Y1235D] (P08581 whole entry Y1235D): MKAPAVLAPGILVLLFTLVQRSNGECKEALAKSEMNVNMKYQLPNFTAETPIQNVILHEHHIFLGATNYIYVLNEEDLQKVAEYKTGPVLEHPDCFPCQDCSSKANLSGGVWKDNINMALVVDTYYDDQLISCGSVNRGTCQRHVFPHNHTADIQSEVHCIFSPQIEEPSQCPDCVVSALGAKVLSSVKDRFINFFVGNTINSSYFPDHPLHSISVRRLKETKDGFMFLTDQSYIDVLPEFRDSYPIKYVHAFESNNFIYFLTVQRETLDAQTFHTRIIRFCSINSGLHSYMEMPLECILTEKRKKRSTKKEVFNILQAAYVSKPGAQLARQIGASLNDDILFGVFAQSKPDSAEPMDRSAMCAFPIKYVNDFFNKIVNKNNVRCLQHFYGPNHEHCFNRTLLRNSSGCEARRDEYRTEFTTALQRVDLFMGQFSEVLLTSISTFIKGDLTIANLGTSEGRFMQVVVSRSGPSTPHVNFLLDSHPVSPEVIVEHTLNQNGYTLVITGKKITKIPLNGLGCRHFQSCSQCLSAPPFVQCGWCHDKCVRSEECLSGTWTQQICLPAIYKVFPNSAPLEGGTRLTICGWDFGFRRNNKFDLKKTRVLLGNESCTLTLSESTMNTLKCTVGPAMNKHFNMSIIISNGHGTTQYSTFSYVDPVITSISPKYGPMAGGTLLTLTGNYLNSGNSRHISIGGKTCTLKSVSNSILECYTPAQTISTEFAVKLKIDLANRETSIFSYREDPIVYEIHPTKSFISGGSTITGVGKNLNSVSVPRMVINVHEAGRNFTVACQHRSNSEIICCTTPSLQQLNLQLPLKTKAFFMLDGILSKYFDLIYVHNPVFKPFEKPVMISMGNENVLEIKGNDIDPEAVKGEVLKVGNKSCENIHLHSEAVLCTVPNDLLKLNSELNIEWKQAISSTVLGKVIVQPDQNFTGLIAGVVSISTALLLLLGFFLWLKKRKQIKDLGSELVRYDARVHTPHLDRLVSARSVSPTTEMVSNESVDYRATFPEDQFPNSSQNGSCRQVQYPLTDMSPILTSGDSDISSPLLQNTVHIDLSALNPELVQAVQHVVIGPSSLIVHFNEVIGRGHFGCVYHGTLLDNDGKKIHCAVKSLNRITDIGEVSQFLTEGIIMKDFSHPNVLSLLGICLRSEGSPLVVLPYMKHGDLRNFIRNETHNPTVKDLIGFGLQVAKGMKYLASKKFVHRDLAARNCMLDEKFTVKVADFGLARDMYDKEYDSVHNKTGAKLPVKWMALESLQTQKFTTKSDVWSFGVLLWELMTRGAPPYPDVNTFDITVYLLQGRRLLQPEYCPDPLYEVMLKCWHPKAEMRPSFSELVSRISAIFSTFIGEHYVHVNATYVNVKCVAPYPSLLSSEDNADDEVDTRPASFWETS
Chain of Hepatocyte growth factor receptor (P08581 whole entry): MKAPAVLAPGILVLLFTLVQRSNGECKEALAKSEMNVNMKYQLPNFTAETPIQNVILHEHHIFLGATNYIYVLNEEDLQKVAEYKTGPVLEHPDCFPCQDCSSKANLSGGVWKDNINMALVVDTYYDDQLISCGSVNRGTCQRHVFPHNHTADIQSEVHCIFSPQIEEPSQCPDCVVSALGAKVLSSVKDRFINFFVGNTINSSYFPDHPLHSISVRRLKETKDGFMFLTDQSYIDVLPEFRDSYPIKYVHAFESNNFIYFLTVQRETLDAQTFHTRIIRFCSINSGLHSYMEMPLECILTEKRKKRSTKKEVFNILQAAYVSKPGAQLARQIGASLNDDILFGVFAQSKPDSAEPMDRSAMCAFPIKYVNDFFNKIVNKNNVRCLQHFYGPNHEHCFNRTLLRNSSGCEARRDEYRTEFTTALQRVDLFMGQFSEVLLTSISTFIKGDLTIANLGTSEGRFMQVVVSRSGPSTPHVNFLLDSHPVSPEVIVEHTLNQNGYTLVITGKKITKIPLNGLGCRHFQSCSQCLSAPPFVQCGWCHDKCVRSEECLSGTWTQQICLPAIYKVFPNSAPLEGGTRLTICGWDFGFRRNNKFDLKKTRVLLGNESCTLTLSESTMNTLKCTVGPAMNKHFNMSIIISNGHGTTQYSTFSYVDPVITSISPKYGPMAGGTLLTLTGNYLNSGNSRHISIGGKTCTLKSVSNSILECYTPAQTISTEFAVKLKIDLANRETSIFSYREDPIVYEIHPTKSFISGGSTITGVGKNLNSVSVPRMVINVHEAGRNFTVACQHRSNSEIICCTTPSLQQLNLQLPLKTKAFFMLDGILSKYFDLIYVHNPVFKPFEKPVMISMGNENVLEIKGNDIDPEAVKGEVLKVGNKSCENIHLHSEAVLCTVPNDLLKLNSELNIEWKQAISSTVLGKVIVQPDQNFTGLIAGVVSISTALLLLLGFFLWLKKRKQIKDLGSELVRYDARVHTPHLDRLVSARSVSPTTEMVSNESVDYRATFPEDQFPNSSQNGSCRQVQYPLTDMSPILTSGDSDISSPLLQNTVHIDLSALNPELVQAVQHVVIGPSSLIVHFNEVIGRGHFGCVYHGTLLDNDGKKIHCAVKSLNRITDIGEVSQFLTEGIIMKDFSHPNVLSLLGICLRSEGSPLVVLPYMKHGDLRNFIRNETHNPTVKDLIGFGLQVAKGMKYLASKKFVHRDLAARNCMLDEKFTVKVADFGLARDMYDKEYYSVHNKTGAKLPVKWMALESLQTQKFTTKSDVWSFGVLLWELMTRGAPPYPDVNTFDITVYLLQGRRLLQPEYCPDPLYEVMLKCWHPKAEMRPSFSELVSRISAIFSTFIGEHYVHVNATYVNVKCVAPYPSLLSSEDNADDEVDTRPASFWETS

Compound: CCc1ccccc1C(=O)Nc1n[nH]c2c(C)c(F)c(C3C(C#N)=C(C)N(C)C(C)=C3C#N)cc12 [BAY-3827]
- % of control [1]: 7.3%
- % of control [2]: 16%
- % of control [3]: 25%

Compound: CN(C)C/C=C/C(=O)Nc1ccc(C(=O)N2CCCC(Nc3ncc(Cl)c(-c4c[nH]c5ccccc45)n3)C2)cc1 (configuration not stated)
- % of control [6]: 95%

Compound: C=CC(=O)Nc1cc(-n2c(=O)ccc3cnc4ccc(-c5ccc(NS(C)(=O)=O)cc5)cc4c32)ccc1C
- % of control ([7]; at 1 µM): 86%
- % of control ([7]; at 10 µM): 96%

Second part, the molecule after the results:

- % of control [4]: 22%
Compound: CCN(CC)CCCCNc1ncc2cc(-c3cc(OC)cc(OC)c3)c(NC(=O)NC(C)(C)C)nc2n1

- % of inhibition ([5]; at 0.01 µM): 11.8%
- % of inhibition ([5]; at 0.04 µM): -10.9%
- % of inhibition ([5]; at 0.2 µM): -1.8%
- % of inhibition ([5]; at 1 µM): 9.6%
- % of inhibition ([5]; at 5 µM): 8.3%
Compound: CC[C@@H]1[C@H](F)C(=O)N[C@@H]1COc1nccc2cc(C(N)=O)c(OC)cc12 [ZIMLOVISERTIB]
